Values joined by “and” are separate entries in the source; they are usually repeats but may differ in a detail not shown here. Equal entries are not always repeated.

In one assay the test system is DHA and AA levels. The assay can be described thus: Fatty acid analysis (DHA, AA, DHA/AA ratio) in lungs and plasma, 28 daily treatments. Type of assay: in vivo, mice. The method, then: (§1) Fenretinide Diet Supplementation. Examples 2 to 6: fenretinide (Sigma-Aldrich, Oakville, ON) powder was resuspended in 95% ethanol and subsequently incorporated in the Peptamen liquid diet. It was protected from light and kept at 4° C. before being given to the mice (5 mg/kg per day per mouse). Mock-treated diets were prepared similarly by adding ethanol to the Peptamen diet but omitting the fenretinide supplementation. The diet was given every morning for 28 consecutive days with specific monitoring of the quantity consumed by the mice in each cage. Examples 7 to 12: fenretinide powder was kindly provided by Dr. Robert Smith (NIH; Bethesda, Md., USA). Fenretinide was resuspended in 95% ethanol to make a 2 μg/μL concentration. Approximately 40 μL of this preparation was incorporated into the Peptamen liquid diet (5 mg/kg per day per mouse). The prepared food containing fenretinide was then stored in the dark at 4° C. for no more than 3 hours prior to being administered to the mice. To ensure that the entire drug dose was consumed, the mice were given 10 mL of fenretinide-treated Peptamen, which represents ⅔ of the daily mouse food consumption, in the late afternoon. The remaining 5 mL of Peptamen (without fenretinide) was given the following morning. Mice were treated twice a week for 4 weeks. During the treatment period each mouse was kept in a separate cage (including WT mice) and was monitored to ensure that the entire amount of Peptamen containing the fenretinide or with out was consumed. The diet for the mock-treated control group was prepared and administered similarly to that described above, by adding the same volume of ethanol to the Peptamen diet but omitting the fenretinide supplementation.
Fatty Acid Analysis. Minced tissues isolated from mice were immersed in 1 mM BHA in chloroform and methanol (2:1 vol). For plasma samples (mouse and human), 100 μL of plasma was added to 1 mL of BHA. Lipids were then extracted from all samples according to standard methods (Folch, et al. (1957) J. Biol. Chem. 226:497-509). Identification of phospholipids was carried out by thin-layer chromatography extraction (Van Handel & Zilversmit (1957) J. Lab. Clin. Med. 50:152-157). Also, fractionated lipids were dried and resuspended in heptane:methanol:sulfuric acid (5:1:1) for free fatty acid extraction. Diazomethane was used to esterify the fatty acids released and the esters were identified by GC/MS (Hewlett Packard 5880A, WCOT capillary column (Supelco-10, 35 m×0.5 mm, 1 μm thick)) using commercial standards (Sigma-Aldrich).

The subject of the next assay is ceramide levels. The assay can be described thus: Ceramide levels by ELISA in lung and plasma of uninfected mice, fenretinide diet supplementation. It counts as in vivo. The following applies: 5 mg/kg per day in diet, 28 days, 5 mg/kg/day.
Source text: Animals. Inbred C57BL/6-Cftr mice breeding pairs, heterozygous (HZ) at the Cftr locus, were used. All babies were genotyped between days 12 and 14 of their life. The animals were kept in cages with sterile corn bedding (Anderson, Bestmonro, La.) and maintained in ventilated racks (Lab Products). Mice were fed with either the NIH-31-modified irradiated mouse diet (Harlan Teklad, Indianapolis, Ind.) or a liquid diet starting at 14 days of age (Peptamen liquid diet; Nestle Canada, Brampton, ON). The liquid diet were freshly prepared every morning and provided in 50-mL centrifuge tubes (Fisher Scientific Ltd, Nepean, ON). Age- and gender-matched C57BL/6-Cftr+/+ (wild-type) mice, (female; n=10, male; n=31) and C57BL/6-Cftr−/− (Cftr-KO) mice (female; n=8, male; n=18) were murine pathogen-, Helicobacter- and parasite-free. They were housed (1-4 animals/cage), bred and maintained in a barrier facility unit under specific pathogen-free conditions. Experimental procedures with the mice were conducted in accordance with the Canadian Council on Animal Care guidelines and with the approval of the Animal Care Committee of the McGill University Health Center, Montreal, Quebec, Canada.
as §1
Ceramide/Sphingolipids analysis. The concentration of ceramide in the (lung, liver, ileum, pancreas homogenates) and plasma from mice and humans were determined by ELISA^39;40 on separated lipids samples by thin layer chromatography, as described above. The phospholipids from the dry silica were resuspended in ethanol and used to coat Nunc plates specific for lipid binding. Plates were then washed, incubated with blocking buffer for 1 hr at 37° C. […]
A general note: ELISA stands for enzyme-linked immunosorbent assay.

The mark [1] stands for this setting: fenretinide-treated Cftr-KO infected mice, lungs and plasma.
Setting [2] is: wild-type mice, lungs and plasma.

On to `CC1=C(/C=C/C(C)=C/C=C/C(C)=C/C(=O)Nc2ccc(O)cc2)C(C)(C)CCC1` [fenretinide, all-trans-N-(4-hydroxyphenyl) retinamide], for which the “AA levels in the ileum, liver and pancreas” value in the assay with DHA and AA levels (Cftr-KO mice) was “decrease”. The “Difference in median DHA/AA index ratio, wild-type/Cftr-KO” value in the assay on DHA and AA levels (FEN-treated mice (untreated = 67-fold)) came to 7 fold. In addition, the “Lowering of the difference in median DHA/AA index ratio between wild-type and Cftr-KO” value with DHA and AA levels (FEN-treated vs untreated) is listed as “approximately 10 fold”. Also, in the assay with DHA and AA levels (setting [1]), the “AA levels, median vs infected Cftr-KO untreated controls” value is given as “lower median” and the “Concentration of DHA incorporated in phospholipids, median vs wild-type infected controls” value is reported as “lower median”. In addition, in the assay with DHA and AA levels (fenretinide-treated Cftr-KO infected mice, plasma), the “Free DHA concentration, median vs wild-type infected controls” value is recorded as “higher median”. The “Free DHA (percentile), median vs wild-type untreated uninfected controls” value with DHA and AA levels (fenretinide-treated infected wild-type mice, lungs and plasma) is recorded as “significant difference”. Moreover, the “DHA incorporated in phospholipids (percentile of total fatty acids), median vs untreated Cftr-KO” value with DHA and AA levels (infected Cftr-KO mice, lungs and plasma) was “no difference”. Further, the “DHA/AA median index ratio vs untreated Cftr-KO” value in the assay on DHA and AA levels (infected Cftr-KO mice, lungs and plasma (significant only in lungs)) was “increase”. In the assay on DHA and AA levels (setting [2]), the “DHA incorporated in phospholipids (percentile of total fatty acids), median vs untreated wild-type” value is listed as “no difference” and the “DHA/AA median index ratio vs untreated wild-type” value is listed as “no effect”. Moreover, in the assay on ceramide levels (Cftr-KO mice), the “Ceramide levels, fold-increase (FEN-treated over CTRL), Lung” value (from here on “Ceramide levels, fold-increase … Lung”) is 7.0 fold and 7.0 (n = 3) fold; the “Ceramide levels, fold-increase (FEN-treated over CTRL), Plasma” value (“Ceramide levels, fold-increase … Plasma” below) is 6.9 fold and 6.9 (n = 3) fold. In the assay on ceramide levels (HZ mice), the “Ceramide levels, fold-increase … Lung” value was 2.1 fold and 2.1 (n = 3) fold; the “Ceramide levels, fold-increase … Plasma” value is 2.7 fold and 2.7 (n = 3) fold. Further, in the assay with ceramide levels (WT mice), the “Ceramide levels, fold-increase … Lung” value was 1.4 fold and 1.4 (n = 10) fold; the “Ceramide levels, fold-increase … Plasma” value is 1.6 fold and 1.6 (n = 12) fold.

The values above are taken from patent US8680153B2, “Method for correcting a lipid imbalance in a subject” (The Royal Institution for the Advancement of …, priority 2005, dated 2014).
